Patent US20230121313A1 (priority 2019, published 2023)

Columns and labels:
[1] = tested on: subjects with MDD at imminent risk for suicide; settings: 84 mg
Description: Among 68 randomized subjects, 66 were included in the safety analysis set (defined as receiving at least one dose of study medication in the double-blind phase). […] All safety subjects (N=66) were included in the intent-to-treat (ITT) analysis set (defined as receiving at least one dose of study medication during the double-blind phase and having both the baseline and the Day 1, 4-hour postdose evaluation for the MADRS total score). Forty-nine subjects were included in the safety (FU) analysis set (defined as all subjects who have at least 1 visit during the follow up phase).

[2] = tested on: patients with treatment-resistant depression (TRD); experiment: CGI-S, phase 2 dose-response study in TRD; assay type: in vivo, human
Description: Overall illness severity was assessed on the Clinical Global Impression of Severity (CGI-S) scale (Guy, “ECDEU Assessment Manual for Psychopharmacology-Revised (DHEW Publ No ADM 76-338)”, Rockville, Md.: U.S. Department of Health, Education, and Welfare, Public Health Service, Alcohol, Drug Abuse, and Mental Health Administration, NIMH Psychopharmacology Research Branch, Division of Extramural Research Programs; 1976, pp 218-222). Participants assessed their severity of anxiety on the Generalized Anxiety Disorder 7-item (GADS-7) Scale (See, Tables 157 and 158). See, Spitzer, “A brief measure for assessing generalized anxiety disorder—the GAD-7”, Arch. Intern. Med., 2006, 166(10):1092-1097.

[3] = human, in vivo, other: intranasal

CN[C@]1(c2ccccc2Cl)CCCCC1=O [esketamine, (S)-2-(2-chlorophenyl)-2-(methylamino)cyclohexanone]
Subjects with possibly related TEAE (%) ([1]; double-blind phase, N = 35, possible, probable, very likely): 82.9% | AE Abdominal pain, subjects (%) ([1]; follow up phase, N = 27): (3.7%) | AE Abdominal tenderness, subjects (%) ([1]; follow up phase, N = 27): (3.7%) | AE Back pain, subjects (%) ([1]; follow up phase, N = 27): (3.7%) | AE Cogwheel rigidity, subjects (%) ([1]; follow up phase, N = 27): (3.7%) | AE Contusion, subjects (%) ([1]; follow up phase, N = 27): (3.7%) | AE Depression, subjects (%) ([1]; follow up phase, N = 27): (3.7%) | AE Diarrhea, subjects (%) ([1]; follow up phase, N = 27): (3.7%) | AE Dizziness, subjects (%) ([1]; follow up phase, N = 27): (3.7%) | AE Dry mouth, subjects (%) ([1]; follow up phase, N = 27): (7.4%) | AE Dysgeusia, subjects (%) ([1]; follow up phase, N = 27): (3.7%) | AE Ear infection, subjects (%) ([1]; follow up phase, N = 27): (3.7%) | AE Epistaxis, subjects (%) ([1]; follow up phase, N = 27): (3.7%) | AE Flank pain, subjects (%) ([1]; follow up phase, N = 27): (3.7%) | AE Gastrointestinal disorders, subjects (%) ([1]; follow up phase, N = 27): (22.2%) | AE Headache, subjects (%) ([1]; follow up phase, N = 27): (7.4%) | AE Infections and infestations, subjects (%) ([1]; follow up phase, N = 27): (11.1%) | AE Injury, poisoning and procedural complications, subjects (%) ([1]; follow up phase, N = 27): (7.4%) | AE Insomnia, subjects (%) ([1]; follow up phase, N = 27): (11.1%) | AE Intentional self-injury, subjects (%) ([1]; follow up phase, N = 27): (3.7%) | AE Loss of consciousness, subjects (%) ([1]; follow up phase, N = 27): (3.7%) | AE Migraine, subjects (%) ([1]; follow up phase, N = 27): (3.7%) | AE Musculoskeletal and connective tissue disorders, subjects (%) ([1]; follow up phase, N = 27): (7.4%) | AE Musculoskeletal chest pain, subjects (%) ([1]; follow up phase, N = 27): (3.7%) | AE Musculoskeletal pain, subjects (%) ([1]; follow up phase, N = 27): (3.7%) | AE Nasal congestion, subjects (%) ([1]; follow up phase, N = 27): (3.7%) | AE Nasopharyngitis, subjects (%) ([1]; follow up phase, N = 27): (3.7%) | AE Neck pain, subjects (%) ([1]; follow up phase, N = 27): (3.7%) | AE Nervous system disorders, subjects (%) ([1]; follow up phase, N = 27): (22.2%) | AE Night sweats, subjects (%) ([1]; follow up phase, N = 27): (3.7%) | AE Pelvic pain, subjects (%) ([1]; follow up phase, N = 27): (3.7%) | AE Pharyngitis, subjects (%) ([1]; follow up phase, N = 27): (7.4%) | AE Psychiatric disorders, subjects (%) ([1]; follow up phase, N = 27): (18.5%) | AE Reproductive system and breast disorders, subjects (%) ([1]; follow up phase, N = 27): (3.7%) | AE Respiratory, thoracic and mediastinal disorders, subjects (%) ([1]; follow up phase, N = 27): (7.4%) | AE Restlessness, subjects (%) ([1]; follow up phase, N = 27): (3.7%) | AE Road traffic accident, subjects (%) ([1]; follow up phase, N = 27): (3.7%) | AE Sedation, subjects (%) ([1]; follow up phase, N = 27): (3.7%) | AE Skin and subcutaneous tissue disorders, subjects (%) ([1]; follow up phase, N = 27): (3.7%) | AE Suicidal ideation, subjects (%) ([1]; follow up phase, N = 27): (3.7%) | AE Tremor, subjects (%) ([1]; follow up phase, N = 27): (7.4%) | AE Upper respiratory tract infection, subjects (%) ([1]; follow up phase, N = 27): (3.7%) | AE Vomiting, subjects (%) ([1]; follow up phase, N = 27): (3.7%) | AE Vulvovaginal mycotic infection, subjects (%) ([1]; follow up phase, N = 27): (3.7%) | Serious AE: Psychiatric disorders, subjects (%) ([1]; follow up phase, N = 27): 3.7% | Serious AE: Suicidal ideation, subjects (%) ([1]; follow up phase, N = 27): 3.7% | Total no. subjects with a serious adverse event (%) ([1]; follow up phase, N = 27): 3.7% | Total no. subjects with adverse events (%) ([1]; follow up phase, N = 27): (48.1%) | Subjects who discontinued from the double-blind phase due to adverse events [1, 3]: 5 subjects | Subjects with at least one TEAE [1, 3]: 94.3% | Subjects with at least one adverse event [1, 3]: 48.1% | TEAE dissociation, % of subjects [1, 3]: 31.4% | TEAE dizziness, % of subjects [1, 3]: 34.3% | TEAE dysgeusia, % of subjects [1, 3]: 31.4% | TEAE headache, % of subjects [1, 3]: 31.4% | TEAE nausea, % of subjects [1, 3]: 37.1% | TEAE vomiting, % of subjects [1, 3]: 20.0% | Subjects with a serious adverse event ([1]; human, in vivo, other: intranasal, 56 day): 1 | CGI-S Median (Range) ([2]; Period 1, 28 mg): 4.0 (3, 5) | CGI-S Median Change (Range) from baseline to end point ([2]; Period 1, 28 mg): −1.0 (−2, 1) | CGI-S Median (Range) ([2]; Period 1, 56 mg): 4.0 (1, 5) | CGI-S Median Change (Range) from baseline to end point ([2]; Period 1, 56 mg): −1.0 (−3, 0) | CGI-S Median (Range) ([2]; Period 1, 84 mg): 4.0 (1, 6) | CGI-S Median Change (Range) from baseline to end point ([2]; Period 1, 84 mg): −0.5 (−4, 0) | CGI-S Median (Range) ([2]; Period 2, 28 mg): 4.0 (3, 5) | CGI-S Median Change (Range) from baseline to end point ([2]; Period 2, 28 mg): −1.0 (−1, 0) | CGI-S Median (Range) ([2]; Period 2, 56 mg): 5.0 (4, 6) | CGI-S Median Change (Range) from baseline to end point ([2]; Period 2, 56 mg): −1.0 (−2, 0) | CGI-S Median (Range) ([2]; Period 2, 84 mg): 4.0 (3, 5) | CGI-S Median Change (Range) from baseline to end point ([2]; Period 2, 84 mg): −1.0 (−2, 0)
